Test results from patent US4735651A, “Novel phytotoxic and plant growth regulating oligopeptide” (The United States of America as represented by the …, priority 1986, dated 1988).

Experiments:
[1] = system: lettuce (Lactuca sativa) cv. Northern Lakes seedlings; test: Root growth bioassay of germinating lettuce seedlings; format: in vivo; details: lettuce seedling assay (L), 10^-6 M
Method: (§1) Applicants' preferred embodiments of this invention comprises the incorporation of structural peptide backbone changes which increase conformational constraint, and vary the orientation of amino acid side chains when constrasted with naturally occurring amino acid sequences. […] Rooth growth inhibition/promotion was measured in germinating lettuce (Lactuca sativa) cv. Northern Lakes and curly cress (Lepidium sativum) seedling assays nominally used for screening herbicidal compounds and in a wheat coleoptile assay used for generally screening biological activity. Only compounds exerting measurable biological activities at 1×10^-6 M in concentration in the lettuce and cress assays and 1×10^-3 M in the wheat coleoptile are claimed.
(§2) Aliquots of tested oligopeptide compounds of the type Formulas I-V were dissolved in ethyl acetate. One milliliter aliquots of the samples were pipetted onto a […] filter disk, dried, and placed in a Petri dish. One mL of distilled water was pipetted onto the filter paper and 15 lettuce seeds were uniformly distributed on the surface of the filter paper and allowed to imbibe in the dark at 20° to 25° C. for 24 h. The samples were subsequently placed in a growth chamber under continuous light at 28° C. for 72 h, and the root lengths were measured.
(§3) During the course of these assays, visual assessment of seedling vigor was made in addition to root length measurements. […] Assessment of phytotoxicity was not confined to assessment of the root, but included any organ of the assay species.

[2] = system: curly cress (Lepidium sativum) seedlings; test: Root growth bioassay of germinating curly cress seedlings; format: in vivo; details: curly cress seedling assay (C), 10^-6 M
Method: as §1, §2, §3

[3] = system: lettuce and cress seedlings; test: Lettuce and curly cress seedling assays, visual assessment and overall activity (species not split); format: in vivo, Lactuca sativa; Lepidium sativum; design: key to Phytotoxicity: +: designated as phytotoxic if they exhibited either chlorosis and/or necrosis of tissues when compared with untreated control plants; details: for Root growth inhibitor or promoter activity (in words): 10^-6 M; for Phytotoxicity: visual assessment of chlorosis and/or necrosis, any organ; for Phytotoxic properties observed (in words): visual assessment of seedlings
Method: as §1, §2, §3

[4] = system: lettuce, potato, cucumber, spinach, radish, corn, tobacco; details: literature; cited from earlier work
[5] = system: susceptible maize hybrids; details: literature; cited from earlier work

For `CCN(C(=O)[C@@H](CC(C)C)NC(=O)OC(C)(C)C)/C(=C\c1ccccc1)C(=O)NCC(=O)OC` [Compound 7, Boc-D-Leu-N(C2 H5)Δ^z Phe-Gly-OMe], the “% Root Growth Inhibitor (inhibition)” value [1] was 50% and the “% Root Growth Inhibitor (inhibition)” value [2] was 80%.

For `COC(=O)CNC(=O)/C(=C/c1ccccc1)N(C)C(=O)[C@H](CC(C)C)NC(=O)OC(C)(C)C` [Compound 8, Boc-Leu-N(CH3)Δ^z Phe-Gly-OMe], the “% Root Growth Inhibitor (inhibition)” value [1] was 60% and the “% Root Growth Inhibitor (inhibition)” value [2] was 50%.

In the case of `COC(=O)CNC(=O)/C(=C/c1ccccc1)NC(=O)[C@@H](C)NC(=O)OC(C)(C)C` [Compound 10, Boc-D-Ala-Δ^z Phe-Gly-OMe], the “% Root Growth Inhibitor (inhibition)” value [1] is reported as 40% and the “% Root Growth Inhibitor (inhibition)” value [2] is reported as 20%.

In the case of `COC(=O)CNC(=O)/C(=C/c1ccccc1)N(C)C(=O)[C@@H](NC(=O)OC(C)(C)C)C(C)C` [Compound 12, Boc-Val-N(CH3)Δ^z Phe-Gly-OMe], the “% Root Growth Inhibitor (inhibition)” value [2] is reported as 85%.

With `CC(C)C[C@@H]1NC(=O)[C@H](C)N(C)C(=O)CNC(=O)/C(=C/c2ccccc2)N(C)C1=O` [Compound 13, cyclo [L-Leucyl-N-methyl-(Z)-dehydrophenylalanyl-glycyl-N-methyl-L-alnyl]] the “Root growth inhibitor or promoter activity (in words)” value [3] was “Not active as a inhibitor”, the “Root growth inhibitor or promoter activity (in words)” value ([3]; listed as tentoxin) was “none of the plant growth inhibiting or promoting properties” and the Phytotoxicity [3] was “+”. The “Phytotoxic properties observed (in words)” value [3] was “induces chlorosis in lettuce seedlings” and the Chlorosis induction [4] was “induces chlorosis in lettuce, potato, cucumber and spinach but not in radish, corn and some species of tobacco”.

For `C[C@@H]1NC(=O)[C@H]2CCCN2C(=O)[C@H](CCCCCC(=O)[C@@H]2CO2)NC(=O)[C@@H](C)NC1=O` [HC toxin], the Root growth inhibition [5] is listed as “root growth inhibition of susceptible maize hybrids”.

In the case of “Boc-N(CH3)-Ala-Leu-N(CH3)Δ^z Phe-Gly-OMe [Compound 5]”, the “Root growth inhibitor or promoter activity (in words)” value [3] is reported as “active”, the Phytotoxicity [3] is reported as “+” and the “Phytotoxic properties observed (in words)” value [3] is reported as “root growth inhibition leading to early mortality”.
